Reference: ChEMBL document CHEMBL3301361, “Experimental in vitro DMPK and physicochemical data on a set of publicly disclosed compounds”
In brackets after ≈: the same amount, converted by molar mass.

Columns and labels:
in vitro [1] = settings: hepatocytes
in vitro [2] = settings: SD, HW or BN, rat, plasma
in vitro [3] = settings: human
physchem [4] = settings: pH 7.4 buffer
physchem [5] = settings: octan-1-ol/water, pH 7.4, LogD7.4
in vitro [6] = settings: human, plasma, PPB

SMILES | hepatocyte CLint (in vitro [1]) | fraction unbound at 5 h (in vitro [2]) | microsomal CLint (in vitro [3]; liver microsomes) | solubility thermodynamic (physchem [4]) | logD (physchem [5]) | fraction unbound at 5 h (in vitro [6]) | microsomal CLint (in vitro [3]; microsomes)
C[C@@H]1C[C@H]2[C@@H]3CCC4=CC(=O)C=C[C@]4(C)[C@@]3(F)[C@@H](O)C[C@]2(C)[C@@]1(O)C(=O)CO [DEXAMETHASONE] | 31 µL/min/1e6 cells | 0.126 | – | 141 µM (≈ 55.5 µg/mL) | 1.87 | 0.285 | –
O=C(Nc1nc2ccccc2[nH]1)c1ccccc1 | > 150 µL/min/1e6 cells | 0.126 | 64 µL/min/mg | – | – | – | –
O=C(CN1CCOCC1)Nc1ccc(-c2cccc3c(=O)cc(N4CCOCC4)oc23)cc1-c1ccccc1 | 123 µL/min/1e6 cells | 0.0633 | – | – | – | – | –
O=C(C1CCN(c2nnc(-n3cccc3)s2)CC1)N1CCN(Cc2ccc3c(c2)OCO3)CC1 | 50.1 µL/min/1e6 cells | – | > 150 µL/min/mg | – | 2.5 | 0.0447 | –
CN(C)C(C)(C(=O)OC1CC[N+](C)(C)CC1)c1ccccc1 (stereo unspecified) | 16 µL/min/1e6 cells | 0.454 | – | – | – | – | < 3 µL/min/mg
Cc1ccc(C(NC(=O)c2ccccc2O)C(=O)Nc2c(C)cccc2C)s1 (stereo unspecified) | 70 µL/min/1e6 cells | 0.0075 | – | – | 4.05 | – | –
Cc1cc(CCCOc2c(Cl)cc(C3=NCCO3)cc2Cl)on1 | > 150 µL/min/1e6 cells | – | – | – | 3.72 | 0.0034 | 66.1 µL/min/mg
CCOc1ccc(-n2c([C@@H](C)N(CC3CCN(C)CC3)C(=O)Cc3ccc(F)c(C(F)(F)F)c3)nc3ncccc3c2=O)cc1 | 19.9 µL/min/1e6 cells | – | 21.4 µL/min/mg | – | 1.4 | 0.129 | –
O=S1(=O)CC(O)C(N2CCC(c3ccccc3)CC2)C1 (stereo unspecified) | 75.9 µL/min/1e6 cells | – | – | – | 1.4 | 0.569 | 5.25 µL/min/mg
CCOc1ccc(-n2c([C@@H](C)N(Cc3cccnc3)C(=O)Cc3ccc(OC(F)(F)F)cc3)nc3ncccc3c2=O)cc1 | 20 µL/min/1e6 cells | 0.0293 | – | – | 3.7 | 0.0477 | –
Cc1ccc(CO)cc1N(c1ccnc(Nc2cc(N3CCOCC3)cc(S(C)(=O)=O)c2)n1)C(C)C | 53.7 µL/min/1e6 cells | – | > 150 µL/min/mg | 1.3 µM (≈ 0.665 µg/mL) | – | 0.0409 | –
CNc1nc(C)c(-c2nc(Nc3cccc(N4CCNCC4)c3)ncc2C#N)s1 | 12.3 µL/min/1e6 cells | – | – | – | 1.9 | 0.139 | 17.8 µL/min/mg
CC(C)N(CCCNC(=O)Nc1ccc(C(C)(C)C)cc1)C[C@H]1O[C@@H](n2ccc3c(N)ncnc32)[C@H](O)[C@@H]1O | 33.9 µL/min/1e6 cells | – | > 150 µL/min/mg | – | 2.4 | 0.201 | –
CCc1[nH]c2nc(Sc3cnc4ccc[n+]([O-])c4c3)nc(N3C[C@@H]4[C@@H](N)[C@@H]4C3)c2c1Cl | 58.9 µL/min/1e6 cells | – | – | – | 2.3 | 0.0661 | 33.9 µL/min/mg
C=CC(=O)Nc1cccc(CN2C(=O)N(c3c(Cl)c(OC)cc(OC)c3Cl)Cc3cnc(NCCCCN(CC)CC)nc32)c1 | 39.8 µL/min/1e6 cells | – | 87.1 µL/min/mg | – | 2.04 | 0.02 | –
CCc1cc2c(cc1N1CCC(N3CCOCC3)CC1)C(C)(C)c1[nH]c3cc(C#N)ccc3c1C2=O [ALECTINIB] | 5.01 µL/min/1e6 cells | 0.5 | – | – | – | – | –
Cc1cc(C)cc(-c2nnc(SCC(=O)N3CCN(C(=O)c4ccco4)CC3)o2)c1 | 89.1 µL/min/1e6 cells | – | – | – | 3 | 0.0321 | 67.6 µL/min/mg
O=C(Nc1cc(-c2ccncc2)c[nH]c1=O)[C@H](Cc1ccccc1)NC1(c2ccccn2)CC1 | > 150 µL/min/1e6 cells | – | 19.1 µL/min/mg | – | 3.44 | 0.0287 | –
CC(C)C(=O)Nc1nc(-c2ccccn2)cc2ccccc12 | 61.7 µL/min/1e6 cells | – | 105 µL/min/mg | – | 2.7 | 0.0245 | –
Cc1cc(C)nc(SCC(N)=O)n1 | < 3 µL/min/1e6 cells | – | < 3 µL/min/mg | – | 0.23 | 0.788 | –
CNCc1ccc(-c2[nH]c3cc(F)cc4c3c2CCNC4=O)cc1 [RUCAPARIB] | 12 µL/min/1e6 cells | – | – | 851 µM (≈ 275 µg/mL) | 1.17 | 0.232 | 5.5 µL/min/mg
COc1ccc2c(Oc3ccc(CC(=O)Nc4cn(C)nc4C)c(OC)c3)ccnc2c1 | 23.4 µL/min/1e6 cells | – | 24.6 µL/min/mg | 10.7 µM (≈ 4.63 µg/mL) | 3.5 | 0.0111 | –
CN[C@@H](C)C(=O)N[C@H](C(=O)N1CC[C@H]2CCN(CCc3ccccc3)C[C@H]21)C1CCCCC1 | 10.5 µL/min/1e6 cells | – | 21.4 µL/min/mg | – | 2.47 | 0.0568 | –
Nc1ncnc2c1ncn2[C@@H]1O[C@H](CSCCCNC(=O)NCc2ccccc2)[C@@H](O)[C@H]1O | 14.4 µL/min/1e6 cells | – | – | – | 0.9 | 0.154 | 21.4 µL/min/mg
COc1cc(O)c(C(CC(=O)N2CC(C)CC(C)C2)c2ccc3c(c2)OCO3)c(OC)c1 (stereo unspecified) | > 150 µL/min/1e6 cells | – | – | – | 4.3 | 0.0024 | > 150 µL/min/mg
COCC1=C(C(=O)O)N2C(=O)[C@@H](NC(=O)/C(=N\OC)c3csc(N)n3)[C@H]2SC1 [CEFPODOXIME] | < 3 µL/min/1e6 cells | 0.454 | – | – | – | 0.465 | –

Continued, values first:

hepatocyte CLint (in vitro [1]) | fraction unbound at 5 h (in vitro [2]) | microsomal CLint (in vitro [3]; liver microsomes) | solubility thermodynamic (physchem [4]) | logD (physchem [5]) | fraction unbound at 5 h (in vitro [6]) | microsomal CLint (in vitro [3]; microsomes) | SMILES
51 µL/min/1e6 cells | 0.051 | 12 µL/min/mg | – | – | – | – | Cc1ccc(S(=O)(=O)Nc2c(C(=O)NC(C)C)c(C)nn2-c2ccccc2)cc1
10 µL/min/1e6 cells | 0.16 | 9 µL/min/mg | – | – | – | – | Cc1nn(-c2ccccc2)c(NS(=O)(=O)c2cccc(CN3CCOCC3)c2)c1C(=O)N[C@@H](C)C(C)(C)C
> 150 µL/min/1e6 cells | – | – | – | 2.58 | 0.0661 | 138 µL/min/mg | O=C(Nc1ccccc1Cl)c1cc[nH]n1
> 150 µL/min/1e6 cells | 0.0488 | – | – | 3.4 | – | – | O=C(Nc1cccc(Cl)c1)c1ccccn1
< 3 µL/min/1e6 cells | – | 9.77 µL/min/mg | – | -0.4 | 0.17 | – | CCCS(=O)(=O)N1N=Cc2cc(Cl)ccc2B1O
< 3 µL/min/1e6 cells | – | – | – | 1.08 | 0.117 | < 3 µL/min/mg | Cc1ccc(S(=O)(=O)Nc2c(C(=O)N[C@@H](C)C(C)(C)C)c(C)nn2C2CCN(CC(F)(F)F)CC2)cc1
6 µL/min/1e6 cells | – | < 3 µL/min/mg | – | 1.64 | 0.324 | – | C[C@@H](C(=O)NCCN1CCCC1)c1ccc(OS(=O)(=O)C(F)(F)F)cc1
> 150 µL/min/1e6 cells | 0.0447 | – | – | – | – | – | COc1cc(NC(=O)c2ccccn2)ccc1Cl
9.55 µL/min/1e6 cells | 0.016 | – | – | 0.93 | 0.0111 | – | Cc1cn([C@H]2CCCN([C@@H](CC(C)C)c3ccc(C(=O)O)c(Oc4cccc(Cl)c4)c3)C2)c(=O)[nH]c1=O
12.9 µL/min/1e6 cells | – | 3.98 µL/min/mg | – | -0.82 | 0.465 | – | CC(=O)Nc1nc(CCc2ccc(NC(=N)N)cc2)cs1
13.8 µL/min/1e6 cells | – | – | – | 3.22 | 0.002 | < 3 µL/min/mg | O=C(O)CCc1ccc(OCc2cc(Cl)ccc2-c2ccccc2)cc1
13.2 µL/min/1e6 cells | – | 15.8 µL/min/mg | – | 1.47 | 0.0133 | – | C[C@H](NC(=O)c1cccc2c1N(Cc1ccc(Cl)cc1)CC2)c1ccc(C(=O)O)cc1
20 µL/min/1e6 cells | – | – | 63.1 µM (≈ 21.9 µg/mL) | 1.41 | 0.371 | < 3 µL/min/mg | CC(C)(C)NS(=O)(=O)c1cncc(-c2ccc3nc(N)nn3c2)c1
26.9 µL/min/1e6 cells | – | 24.6 µL/min/mg | – | 1.5 | 0.651 | – | CCOc1ccc(NC(C)=O)cc1 [PHENACETIN]
> 150 µL/min/1e6 cells | – | – | – | 3.17 | 0.0477 | 46.8 µL/min/mg | Nc1ncnc2c1c(COc1cccc(Cl)c1)nn2C1CCOCC1
19.1 µL/min/1e6 cells | – | < 3 µL/min/mg | – | 1.19 | 0.163 | – | Clc1ccc2ncc(-c3cccc(NC4CNC4)n3)n2c1
> 150 µL/min/1e6 cells | – | 20.4 µL/min/mg | – | 0.9 | 0.201 | – | CCOC(=O)c1cnc2c(N)cccc2c1O
137 µL/min/1e6 cells | – | – | – | 3.69 | 0.0136 | > 150 µL/min/mg | COC(=O)[C@H](c1ccccc1Cl)N1CCc2sccc2C1 [CLOPIDOGREL]
149 µL/min/1e6 cells | – | – | 355 µM (≈ 94.6 µg/mL) | 1.38 | 0.465 | < 3 µL/min/mg | O=C(Nc1ccc(F)cc1)c1ccc(Cl)[n+]([O-])c1
55 µL/min/1e6 cells | – | – | – | 1.55 | 0.349 | 12.6 µL/min/mg | CCCNC(=O)CSc1ccc(S(=O)(=O)N2CCCC2)cn1
6.17 µL/min/1e6 cells | – | 14.1 µL/min/mg | – | 0.05 | 0.0836 | – | Cc1ccc(S(=O)(=O)N2N=Cc3ccccc3B2O)cc1
3.09 µL/min/1e6 cells | – | – | – | 1.4 | 0.176 | 3.98 µL/min/mg | COc1ccc(NC(=O)CCc2c(C)nc3nc(C)nn3c2C)cc1
10 µL/min/1e6 cells | – | – | 51.3 µM (≈ 26.9 µg/mL) | 2.3 | 0.0036 | 5.5 µL/min/mg | Cc1cc(OCCCS(C)(=O)=O)cc(C)c1-c1cccc(COc2ccc3c(c2)OC[C@H]3CC(=O)O)c1
< 3 µL/min/1e6 cells | – | 3.31 µL/min/mg | – | -0.8 | 0.747 | – | CC1N=C(N)N=C(N)N1c1ccc(Cl)cc1 (stereo unspecified)
4.79 µL/min/1e6 cells | – | 6.17 µL/min/mg | – | 2.4 | 0.194 | – | CS(=O)(=O)c1ccc(-c2cnc(N)c(-c3ccc(C(F)(F)F)nc3)c2)cc1 [MMV-048]
19.5 µL/min/1e6 cells | – | – | – | 1.55 | 0.324 | 8.91 µL/min/mg | COc1ccc2nc(C)cc(N3CC(CNC(=O)C4CC4)OC3=O)c2c1 (stereo unspecified)
